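At the GI50, growth is halved. TGI: concentration producing complete growth inhibition.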
Legend:
Experiment in all cases: NCI-60 cell line screen, 384-well format
[1] = tested on: SNB-19 CNS
[2] = tested on: SK-MEL-28 melanoma
[3] = tested on: SN12C renal
[4] = tested on: TK-10 renal
[5] = tested on: MOLT-4 leukemia
[6] = tested on: KM12 colon
[7] = tested on: SNB-75 CNS
[8] = tested on: NCI-H460 NSCLC
[9] = tested on: K-562 leukemia
[10] = tested on: HOP-62 NSCLC
[11] = tested on: PC-3 prostate
[12] = tested on: MALME-3M melanoma
[13] = tested on: RXF 393 renal
[14] = tested on: SK-MEL-2 melanoma
[15] = tested on: OVCAR-3 ovarian
[16] = tested on: UACC-62 melanoma
[17] = tested on: EKVX NSCLC
[18] = tested on: SK-MEL-5 melanoma
[19] = tested on: NCI-H23 lung
[20] = tested on: NCI-H226 lung
[21] = tested on: RPMI-8226 leukemia
[22] = tested on: ACHN renal
[23] = tested on: BT-549 breast
[24] = tested on: T-47D breast
[25] = tested on: M14 melanoma
[26] = tested on: UO-31 renal
[27] = tested on: OVCAR-5 ovarian
[28] = tested on: U251 glioblastoma
[29] = tested on: CCRF-CEM leukemia
[30] = tested on: UACC-257 melanoma
[31] = tested on: MDA-MB-435 melanoma
[32] = tested on: SF-295 CNS
[33] = tested on: LOX IMVI melanoma
[34] = tested on: NCI/ADR-RES ovarian
[35] = tested on: MCF7 breast
[36] = tested on: HCT-116 colon
[37] = tested on: HCT-15 colon
[38] = tested on: HT29 colon
[39] = tested on: SF-539 CNS
[40] = tested on: MDA-MB-468 breast
[41] = tested on: A498 renal
[42] = tested on: HL-60(TB) leukemia
[43] = tested on: CAKI-1 renal
[44] = tested on: SK-OV-3 ovarian
[45] = tested on: A549 NSCLC
[46] = tested on: SR leukemia
[47] = tested on: IGROV1 ovarian
[48] = tested on: DU-145 prostate
[49] = tested on: COLO 205 colon
[50] = tested on: OVCAR-8 ovarian
[51] = tested on: SF-268 CNS
[52] = tested on: OVCAR-4 ovarian
[53] = tested on: 786-0 renal
[54] = tested on: NCI-H322M lung
[55] = tested on: HOP-92 NSCLC
[56] = tested on: NCI-H522 lung
[57] = tested on: MDA-MB-231 breast
[58] = tested on: SW-620 colon
[59] = tested on: HCC-2998 colon
[60] = tested on: HS 578T breast

Cc1cc(C)c(S(=O)(=O)N(CCc2cccc(Br)c2)Cc2ccc(-c3cccc(S(C)(=O)=O)c3)cc2)c(C)c1
GI50 [1]: > 100 µM | TGI [1]: > 100 µM | GI50 [2]: > 100 µM | TGI [2]: > 100 µM | GI50 [3]: > 100 µM | TGI [3]: > 100 µM | GI50 [4]: > 100 µM | TGI [4]: > 100 µM | GI50 [5]: > 100 µM | TGI [5]: > 100 µM | GI50 [6]: > 100 µM | TGI [6]: > 100 µM | GI50 [7]: > 100 µM | TGI [7]: > 100 µM | GI50 [8]: > 100 µM | TGI [8]: > 100 µM | GI50 [9]: > 100 µM | TGI [9]: > 100 µM | GI50 [10]: > 100 µM | TGI [10]: > 100 µM | GI50 [11]: > 100 µM | TGI [11]: > 100 µM | GI50 [12]: > 100 µM | TGI [12]: > 100 µM | GI50 [13]: > 100 µM | TGI [13]: > 100 µM | GI50 [14]: > 100 µM | TGI [14]: > 100 µM | GI50 [15]: > 100 µM | TGI [15]: > 100 µM | GI50 [16]: > 100 µM | TGI [16]: > 100 µM | GI50 [17]: > 100 µM | TGI [17]: > 100 µM | GI50 [18]: > 100 µM | TGI [18]: > 100 µM | GI50 [19]: > 100 µM | TGI [19]: > 100 µM | GI50 [20]: > 100 µM | TGI [20]: > 100 µM | GI50 [21]: > 100 µM | TGI [21]: > 100 µM | GI50 [22]: > 100 µM | TGI [22]: > 100 µM | GI50 [23]: > 100 µM | TGI [23]: > 100 µM | GI50 [24]: > 100 µM | TGI [24]: > 100 µM | GI50 [25]: > 100 µM | TGI [25]: > 100 µM | GI50 [26]: > 100 µM | TGI [26]: > 100 µM | GI50 [27]: > 100 µM | TGI [27]: > 100 µM | GI50 [28]: > 100 µM | TGI [28]: > 100 µM | GI50 [29]: > 100 µM | TGI [29]: > 100 µM | GI50 [30]: > 100 µM | TGI [30]: > 100 µM | GI50 [31]: > 100 µM | TGI [31]: > 100 µM | GI50 [32]: 0.0672 µM | GI50 [33]: > 100 µM | TGI [33]: > 100 µM | GI50 [34]: > 100 µM | TGI [34]: > 100 µM | GI50 [35]: > 100 µM | TGI [35]: > 100 µM | GI50 [36]: > 100 µM | TGI [36]: > 100 µM | GI50 [37]: > 100 µM | TGI [37]: > 100 µM | GI50 [38]: > 100 µM | TGI [38]: > 100 µM | GI50 [39]: > 100 µM | TGI [39]: > 100 µM | GI50 [40]: > 100 µM | TGI [40]: > 100 µM | GI50 [41]: > 100 µM | TGI [41]: > 100 µM | TGI [42]: > 100 µM | GI50 [43]: > 81.9 µM | TGI [43]: > 100 µM | GI50 [44]: > 100 µM | TGI [44]: > 100 µM | GI50 [45]: > 100 µM | TGI [45]: > 100 µM | TGI [46]: > 100 µM | GI50 [47]: > 100 µM | TGI [47]: > 100 µM | GI50 [48]: > 100 µM | TGI [48]: > 100 µM | GI50 [49]: > 100 µM | TGI [49]: > 100 µM | GI50 [50]: > 100 µM | TGI [50]: > 100 µM | GI50 [51]: > 100 µM | TGI [51]: > 100 µM | GI50 [52]: > 100 µM | TGI [52]: > 100 µM | GI50 [53]: > 100 µM | TGI [53]: > 100 µM | GI50 [54]: > 100 µM | TGI [54]: > 100 µM | GI50 [55]: > 100 µM | TGI [55]: > 100 µM | GI50 [56]: > 100 µM | TGI [56]: > 100 µM | GI50 [57]: > 100 µM | TGI [57]: > 100 µM | GI50 [58]: > 100 µM | TGI [58]: > 100 µM | GI50 [59]: > 100 µM | TGI [59]: > 100 µM

Cn1cnc2c(F)c(Nc3ccc(Br)cc3F)c(C(=O)NOCCO)cc21
GI50 [1]: > 100 µM | TGI [1]: > 100 µM | GI50 [2]: < 0.0143 µM | TGI [2]: 0.162 µM | GI50 [3]: 12.5 µM | TGI [3]: > 100 µM | GI50 [4]: 38.3 µM | TGI [4]: > 100 µM | GI50 [5]: > 100 µM | TGI [5]: > 100 µM | GI50 [6]: 0.419 µM | TGI [6]: > 100 µM | TGI [7]: > 75.8 µM | GI50 [8]: > 100 µM | TGI [8]: > 100 µM | TGI [10]: > 100 µM | GI50 [11]: > 100 µM | TGI [11]: > 100 µM | GI50 [12]: < 0.01 µM | TGI [12]: 0.0159 µM | TGI [13]: > 21 µM | GI50 [15]: > 100 µM | TGI [15]: > 100 µM | GI50 [16]: 0.0203 µM | TGI [16]: 1.2 µM | GI50 [17]: 29.4 µM | TGI [17]: > 100 µM | GI50 [18]: 0.0317 µM | GI50 [19]: 0.325 µM | TGI [19]: 17.8 µM | GI50 [20]: 0.405 µM | TGI [20]: > 31.9 µM | GI50 [21]: > 56 µM | TGI [21]: > 100 µM | GI50 [22]: > 33.9 µM | TGI [22]: > 100 µM | GI50 [23]: 15.7 µM | TGI [23]: > 100 µM | GI50 [24]: > 100 µM | TGI [24]: > 100 µM | GI50 [25]: < 0.0121 µM | TGI [25]: 0.161 µM | GI50 [26]: 4.96 µM | TGI [26]: > 45.9 µM | GI50 [27]: 0.922 µM | TGI [27]: > 100 µM | GI50 [28]: 12.4 µM | TGI [28]: > 100 µM | GI50 [29]: > 100 µM | TGI [29]: > 100 µM | GI50 [30]: 0.0333 µM | TGI [30]: 0.241 µM | GI50 [31]: 0.1 µM | TGI [31]: > 100 µM | GI50 [32]: > 100 µM | TGI [32]: > 100 µM | GI50 [33]: 1.25 µM | TGI [33]: 18.7 µM | GI50 [34]: 93.9 µM | TGI [34]: > 100 µM | GI50 [35]: > 100 µM | TGI [35]: > 100 µM | GI50 [36]: 0.498 µM | TGI [36]: 15.2 µM | GI50 [37]: > 44.7 µM | TGI [37]: > 100 µM | GI50 [38]: 0.0524 µM | TGI [38]: > 100 µM | GI50 [39]: 21.9 µM | TGI [39]: > 90.9 µM | GI50 [40]: > 100 µM | TGI [40]: > 100 µM | GI50 [41]: 16.9 µM | TGI [41]: > 100 µM | GI50 [42]: 0.0399 µM | TGI [42]: > 100 µM | TGI [43]: > 100 µM | GI50 [44]: > 100 µM | TGI [44]: > 100 µM | GI50 [45]: 0.553 µM | TGI [45]: > 100 µM | GI50 [46]: 24.7 µM | TGI [46]: > 100 µM | GI50 [47]: 1.55 µM | TGI [47]: > 100 µM | GI50 [48]: 31.8 µM | TGI [48]: > 100 µM | GI50 [49]: < 0.0149 µM | TGI [49]: 0.322 µM | GI50 [50]: > 67.4 µM | TGI [50]: > 100 µM | GI50 [51]: > 100 µM | TGI [51]: > 100 µM | GI50 [52]: 17.9 µM | TGI [52]: > 100 µM | GI50 [53]: > 32.1 µM | TGI [53]: > 100 µM | GI50 [54]: 1.96 µM | TGI [54]: > 57.7 µM | GI50 [55]: 1.38 µM | TGI [55]: 9.01 µM | TGI [60]: > 88.2 µM | GI50 [56]: > 45.4 µM | TGI [56]: > 100 µM | GI50 [57]: 0.422 µM | TGI [57]: 8.26 µM | GI50 [58]: 0.0211 µM | TGI [58]: > 100 µM | GI50 [59]: < 0.01 µM | TGI [59]: 0.733 µM

Reference: PubChem BioAssay (NCI)
